We go through 45 compounds from patent publication US11944616B2 (INSTITUT NATIONAL DE LA SANTE ET DE LA RECHERCHE MEDICAL …, priority 2016, dated 2024).

Like-named read-outs stand apart in the source and are kept apart here.

The nature of data set [1]: In vivo brain penetration measurement (brain/plasma ratio Kp"brain") in rat. The conditions noted are these: for Kp at 3.45 h: brain (without cerebellum) and plasma, male Sprague-Dawley rat, 3.45 h constant-rate intravenous infusion, 4 mg/kg, mean of 3 rats ± standard deviation, read-out: Kp"brain" (total brain/plasma concentration ratio at steady state); for CNS / BBB penetration (in words): rat, conclusion from Kp"brain" values. As for the experimental part:
The femoral vein of male Sprague-Dawley rats (CRL) weighing around 250 g was surgically catheterized at least 72 hours prior to the experiment. 3 animals were performed for each compound tested. The drug was administered as 3.45 h constant-rate intravenous infusion to approach steady state, using a flow rate of 0.8 mL/h, corresponding to dosage of 4 mg/kg (1.067 mg/kg/h, i.e. 1 mg/rat of ˜250 g). The vehicle used was saline.
At the end of the infusion, the rats were anesthetized by inhalation of isoflurane, and blood was collected in a heparinized tube from the abdominal aorta, followed by immediate rinsing of the bloodstream for 2 minutes with saline at a rate of 15 mL/min using a peristaltic pump and left intraventricle cannula (flowing via right atrium). The brain (without cerebellum) was removed, and transferred in a tube and homogenized in two volumes of deionized water using a tissue homogenizer (Precellys24). All samples were stored at −20° C. until analysis. Plasma and brain homogenate sample preparation was performed using solid phase extraction on OASIS® WCX (Waters) and compounds were quantified by reversed phase liquid chromatography and positive electrospray ionization and multiple reaction monitoring mass spectrometry (LC-MS/MS).
This parameter is defined as the ratio of concentrations in brain and blood, Kp“brain” (Cbrain/Cplasma) or log(BB). Log(BB) is the logarithm of the ratio of the steady-state total concentration of a compound in the brain to that in the blood/plasma, log(BB)=log(Cbrain/Cplasma). This parameter depends upon the passive diffusion characteristics, the implication of membrane transporters at the BBB level and the relative drug binding affinity differences between the plasma proteins and brain tissue.

The test system of the next data set is NMDAR. As to the kind of experiment: NMDAR blocking activity using patch-clamp (whole-cell voltage clamp recordings from rat hippocampal neurons). The format is cell-based. The conditions noted are these: currents evoked by 100 μM NMDA and 20 μM D-serine, clamped at −60 mV.

Consider `CC[N@@+]1(CCO)[C@H]2Cc3ccccc3[C@]1(C)c1ccccc12` [Compound No 26], for which the melting point lay in the range of 202 to 205 °C. Further, in data set [1], the Kp at 3.45 h turned out to be 0.4 ± 0.08 and the “CNS / BBB penetration (in words)” value was “do not penetrate the CNS”. The IC50 in the data set with NMDAR (read-out: IC50) turned out to be 400 nM.
Consider `CC[N+]1(CC)[C@H]2Cc3ccccc3[C@]1(C)c1ccccc12`, for which the melting point fell in the range of 237 to 238 °C.
For `C[C@@]12c3ccccc3C[C@@H](c3ccccc31)[N+]2(C)C` [Compound No 1], the melting point was 270 to 280 °C. Also, in data set [1], the Kp at 3.45 h was found to be 0.3 ± 0.03 and the “CNS / BBB penetration (in words)” value is given as “do not penetrate the CNS”. For the same compound, the IC50 with NMDAR (read-out: IC50) was 650 nM.
As to `CC(C)CC[N@+]1(C)[C@H]2Cc3ccccc3[C@]1(C)c1ccccc12`, the melting point lay within 215 to 217 °C.
Still for that read-out and setting: to `CC(=O)NCC[N@+]1(C)[C@H]2Cc3ccccc3[C@]1(C)c1ccccc12` belongs 216 to 218 °C; to `CC[N@@+]1(CC2CC2)[C@@H]2Cc3ccccc3[C@@]1(C)c1ccccc12`, 180 to 181 °C; to `CC(C)(C)c1ccc(C[N@+]2(C)[C@H]3Cc4ccccc4[C@]2(C)c2ccccc23)cc1`, 152 to 154 °C.
Still for that read-out and setting: to `C[C@@]12c3ccccc3C[C@@H](c3ccccc31)[N@@+]2(C)Cc1ccccc1Cl` belongs 129 to 131 °C; to `C[C@@]12c3ccccc3C[C@@H](c3ccccc31)[N@@+]2(C)CC1CCC1`, 159 to 162 °C.
Compound `CC[N@@+]1(CCO)[C@H]2Cc3ccccc3[C@]1(C)c1ccccc12` (racemic) [Compound No 27] registered a melting point of 205 to 208 °C. Moreover, in the data set with NMDAR (read-out: IC50), the IC50 was 360 nM.
On to `C#CC[N@@+]1(CCO)[C@@H]2Cc3ccccc3[C@@]1(C)c1ccccc12`, for which the melting point lay in the range of 201 to 202 °C.
The same measure, in the same setting: the figure for `C=CC[N@@+]1(CCO)[C@@H]2Cc3ccccc3[C@@]1(C)c1ccccc12` is 196 to 197 °C; for `C[C@@]12c3ccccc3C[C@@H](c3ccccc31)[N@@+]2(C)Cc1cccc(C(F)(F)F)c1` it is 167 to 170 °C; for `CCC[N@+]1(C)[C@H]2Cc3ccccc3[C@]1(C)c1ccccc12` it is 214 to 217 °C.
Same read-out and setting: to `C[C@@]12c3ccccc3C[C@@H](c3ccccc31)[N@@+]2(C)CC1(c2ccccc2)CC1` belongs 174 to 176 °C.
Consider `Cc1ccc(C[N@+]2(C)[C@H]3Cc4ccccc4[C@]2(C)c2ccccc23)cc1`, for which the melting point lay in the range of 134 to 136 °C.
On the same count and under the same terms, to `C[C@@]12c3ccccc3C[C@@H](c3ccccc31)[N@@+]2(C)CC(N)=O` belongs 189 to 192 °C; to `CCCCCC[N@+]1(C)[C@H]2Cc3ccccc3[C@]1(C)c1ccccc12`, 200 to 203 °C; to `C[C@@]12c3ccccc3C[C@@H](c3ccccc31)[N@@+]2(C)CC#N`, 147 to 149 °C.
The compound `CC(C)C[N@+]1(C)[C@H]2Cc3ccccc3[C@]1(C)c1ccccc12` [Compound No 4] yielded a melting point of 216 to 217 °C. For the same compound, in the data set with NMDAR, half-maximal inhibition (IC50) was put at 820 nM.
In turn, `C[C@@]12c3ccccc3C[C@@H](c3ccccc31)[N@@+]2(C)CCO` returned a melting point of 216 to 219 °C.
Same read-out and setting: to `CCC[N@@+]1(CC2CC2)[C@@H]2Cc3ccccc3[C@@]1(C)c1ccccc12` belongs 203 to 204 °C; to `CCC(C)C[N@+]1(C)[C@H]2Cc3ccccc3[C@]1(C)c1ccccc12` (stereo partly shown), 181 to 184 °C.
`C[C@@]12c3ccccc3C[C@@H](c3ccccc31)[N@@+]2(C)CC1CCCC1` [Compound No 6] gave a melting point of 125 to 127 °C. The compound further came in with an IC50 with NMDAR of 1100 nM.
As for `CC[N@@+]1(CCCCO)[C@@H]2Cc3ccccc3[C@@]1(C)c1ccccc12`, the melting point was 201 to 202 °C.
Compound `CC[N@+]1(C)[C@H]2Cc3ccccc3[C@]1(C)c1ccccc12` [Compound No 2] yielded a melting point of 230 to 232 °C. The same compound registered an IC50 in the data set with NMDAR of 570 nM.
On to `C#CC[N@@+]1(CC2CC2)[C@@H]2Cc3ccccc3[C@@]1(C)c1ccccc12`, for which the melting point fell in the range of 168 to 169 °C.
The same measure, in the same setting: the figure for `C=CC[N@@+]1(CC2CC2)[C@@H]2Cc3ccccc3[C@@]1(C)c1ccccc12` is 131 to 132 °C.
On the same count and under the same terms, to `COCC[N@+]1(C)[C@@H]2Cc3ccccc3[C@@]1(C)c1ccccc12` belongs 162 to 163 °C; to `C[C@@]12c3ccccc3C[C@@H](c3ccccc31)[N@@+]2(C)CC1CCCCC1`, 220 to 222 °C; to `CC[N+]1(CC)[C@@H]2Cc3ccccc3[C@@]1(C)c1ccccc12`, 218 to 219 °C.
On the same count and under the same terms, to `C[C@@]12c3ccccc3C[C@@H](c3ccccc31)[N@@+]2(C)Cc1ccc(F)cc1` belongs 92 to 94 °C; to `Cc1ccccc1C[N@+]1(C)[C@H]2Cc3ccccc3[C@]1(C)c1ccccc12`, 101 to 103 °C.
`CC[N@@+]1(CC2CC2)[C@H]2Cc3ccccc3[C@]1(C)c1ccccc12` [Compound No 31]: the melting point fell in the range of 189 to 191 °C. The IC50 in the data set on NMDAR (read-out: IC50) came to 270 nM.
Compound `C[C@@]12c3ccccc3C[C@@H](c3ccccc31)[N@@+]2(C)CC1(c2ccc(Cl)cc2)CC1` showed a melting point of 162 to 164 °C.
As for `CCCC[N@@+]1(CCO)[C@@H]2Cc3ccccc3[C@@]1(C)c1ccccc12`, the melting point was 196 to 197 °C.
Same read-out and setting: the figure for `CC[N@@+]1(CCO)[C@H]2Cc3ccccc3[C@]1(C)c1ccccc12` [Compound No 32] is 115 to 120 °C.
In the case of `CCCC[N@@+]1(CC2CC2)[C@@H]2Cc3ccccc3[C@@]1(C)c1ccccc12`, the melting point was 171 to 172 °C.
On the same count and under the same terms, to `C[C@]12c3ccccc3C[C@H](c3ccccc31)[N@@+]2(CCO)CC1CC1` belongs 179 to 180 °C.
The compound `CCCC[N@+]1(C)[C@H]2Cc3ccccc3[C@]1(C)c1ccccc12` [Compound No 3] displayed a melting point of 200 to 203 °C. Moreover, in the data set on NMDAR, half-maximal inhibition (IC50) was put at 500 nM.
Compound `COc1ccc(C[N@+]2(C)[C@H]3Cc4ccccc4[C@]2(C)c2ccccc23)cc1` displayed a melting point of 101 to 103 °C.
For `C[C@@]12c3ccccc3C[C@@H](c3ccccc31)[N@@+]2(C)CC1CC1` [Compound No 5], the melting point was in the range of 103 to 105 °C. The compound further had an IC50 in the data set on NMDAR of 400 nM.
In turn, `CCC[N@@+]1(CCO)[C@@H]2Cc3ccccc3[C@@]1(C)c1ccccc12` yielded a melting point of 221 to 222 °C.
The same measure, in the same setting: to `C[C@@]12c3ccccc3C[C@@H](c3ccccc31)[N@@+]2(C)Cc1ccc(Cl)cc1` belongs 160 to 162 °C.
Same read-out and setting: the figure for `C[C@@]12c3ccccc3C[C@@H](c3ccccc31)[N@@+]2(C)Cc1ccccc1` is 220 to 222 °C.
